From PMC8066341, “Chemical Profiles, Anticancer, and Anti-Aging Activities of Essential Oils of Pluchea dioscoridis (L.) DC. and Erigeron bonariensis L” (Plants, 2021)
In brackets after ≈: the same amount, converted by molar mass.

How the values were obtained:
mushroom tyrosinase = target: T1, mushroom tyrosinase; experiment: dopachrome formation, absorbance […] nm; type: biochemical; conditions: L-tyrosine substrate (0.85 mM solution); phosphate pH 6.8; 15 min preincubation at 25 °C
T1 construct: gene PPO1

[1] = target: T2, Collagenase from Clostridium histolyticum (ChC); experiment: FALGPA hydrolysis, microplate absorbance; type: biochemical, Hathewaya histolytica; conditions: 50 mM tricine pH 7.5, 400 mM NaCl, 10 mM CaCl2; 15 min preincubation; FALGPA substrate
T2 construct: gene colG

[2] = target: T3, Porcine pancreatic elastase (Sus scrofa, UniProt P00772); experiment: N-succinyl-Ala-Ala-Ala-p-nitroanilide hydrolysis, absorbance […] nm; type: biochemical
T3 construct: gene CELA1; native enzyme from pancreas (commercial)
T3 sequence (P00772 27-266): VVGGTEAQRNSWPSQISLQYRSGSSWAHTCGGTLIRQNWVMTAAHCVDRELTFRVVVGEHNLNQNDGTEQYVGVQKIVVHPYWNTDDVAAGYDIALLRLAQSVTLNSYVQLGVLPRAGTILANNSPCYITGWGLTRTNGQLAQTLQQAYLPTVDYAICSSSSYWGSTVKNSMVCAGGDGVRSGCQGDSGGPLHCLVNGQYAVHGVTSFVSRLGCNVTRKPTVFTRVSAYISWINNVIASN

## O=C(O[C@@H]1Cc2c(O)cc(O)cc2O[C@@H]1c1cc(O)c(O)c(O)c1)c1cc(O)c(O)c(O)c1 [epigallocatechin gallate]
Mushroom tyrosinase
  IC50: 14.37 µg/mL (≈ 31.3 µM)
[1]
  IC50: 1.56 µg/mL (≈ 3.4 µM)
[2]
  IC50: 22.4 µM
